Results published in patent US20080286350A1, “Formulation of Multivalent Antibody Constructs and Use of Same for Cancer Therapy” (BC CANCER AGENCY, priority 2004, published 2008).

Columns and labels:
Type in all cases: cell-based
[1] = system: Ramos cells; test: MTT cell viability assay, Ramos cells, 48 hours (Example 1)
[2] = system: Z-138 cells; test: Cell cycle analysis and DAPI staining, Z-138; details: 15 μg/mL, 3 days
Description: (§1) FIGS. 6(a)-6(b) are bar graphs and Western blot analyses showing modulation of cancer cell survival pathways by multivalent liposomal Ab constructs. […] The concentration of trastuzumab was 200 μg/mL. (b) Representative cell cycle analysis, DAPI staining and Western blot analyses of Z-138 cells after exposure to free or liposomal rituximab for 3 days. The concentration of rituximab was 15 μg/mL. […] For DAPI staining, yellow arrows indicate apoptotic morphology of DNA condensation or fragmentation associated with Z-138 cells exposed to various treatments. The scale bar is equivalent to 50 μm, and all images are shown at the same magnification.
Cells were harvested after treatment and fixed in cold 70% ethanol adjusted to 1×10^6 cells/mL and 2×10^6 cells/mL for cell cycle analyses and DAPI staining, respectively. In the case of cell cycle analyses, cells were stained in propidium iodide (PI) buffer [50 μg/mL PI, 1 mg/mL RNase A (Sigma), and 0.1% Triton X-100 in PBS] at 37° C. for 15 min as previously described ^28. Cells were then chilled on ice for 1 h and analyzed on a FACSCalibur flow cytometer (Becton Dickinson, San Jose, Calif.) with 20,000 events collected for each sample. In the case of DAPI staining, cells were incubated in DAPI staining solution (0.1 μg/mL DAPI, 1 mg/mL RNase A and 0.1% Triton X-100 in PBS) for 15 min, followed by chilling on ice for 30 min. Cells were cytospun onto a glass slide, and viewed with a Leica DMLB fluorescence microscope. Images were captured with a Retiga 1300i digital camera and analyzed by the computer software OpenLab 3.5.1 (Improvision).

[3] = system: Ramos (Burkitt's lymphoma) cell line; test: Cell viability assay, fraction of cells affected (fa), Ramos
Description: (§2) FIGS. 5(a)-(d) are a series of bar graphs summarizing results for in vitro treatment of cancer cell lines with free bivalent or liposomal multivalent Ab constructs. […] Fraction of cells affected (fa) was calculated as follows: fa=1−fu, where fu was the fraction of remaining viable cells calculated as the ratio of the absorbance readings from the MTT assay for treated and untreated groups. Data represent mean ±S.E.M. from 3 independent experiments. * and ^# denote P<0.05 as compared to the free Ab treatment (ANOVA and Scheffe test for post-hoc comparisons).
(§3) Cells (3,500 cells/well for LCC6^HER2 and MCF7^HER2, and 20-50,000 cells/well for Ramos and 20,000 cells/well for Z-138) were seeded in 96-well plates. In the case of LCC6^HER2 and MCF7^HER2 cells, treatment was added after an overnight incubation to allow cell adherence to plates. In the case of Ramos and Z-138 cells, treatment was added on the same day after seeding. Cell viability was determined using 3-(4,5-dimethylthiazol-2-yl)-2,5-diphenyltetrazolium bromide (MTT) as previously described ^28 or Alamar Blue added in 10 μL/well with an 18-h incubation before reading fluorescence in a Fluorstar (v 1.2) plate reader (BMG Labtechnologies, Offenburg, Germany).
(§4) For rituximab, testing was conducted in a Burkitt's lymphoma cell line, Ramos (FIG. 5c), and a mantle cell lymphoma cell line, Z-138 (FIG. 5d).

[4] = system: phosphorylated p65NF-κB, Bcl-xL, Bcl-2, Bax, p-Akt; test: Western blot analyses of cell survival molecules, Z-138; details: 15 μg/mL, 3 days
Description: as §1
The following antibodies were used in this study: anti-p-HER2-Tyr-1248/Tyr-1173; anti-HER2; anti-p-Akt-Ser-473 and anti-Akt (all were rabbit polyclonal, New England Biolabs) and anti-human β-actin (mouse monoclonal, Sigma). The secondary antibody was horseradish peroxidase-conjugated anti-mouse or anti-rabbit IgG (Promega, Madison, Wis.). Proteins were detected by enhanced chemiluminescence (Amersham Pharmacia Biotech, Buckinghamshire, England), and visualized after exposure to Kodak autoradiography film. Equivalent amounts of protein (30 μg/lane determined by Bradford assay) were resolved by 12% SDS-polyacrylamide pre-made gels (Bio-Rad).

[5] = system: caspase 3/7; test: Caspase 3/7 activity, Z-138; details: Z-138 cells, data not shown
[6] = system: Z-138 (mantle cell lymphoma) cell line; test: Cell viability assay, fraction of cells affected (fa), Z-138
Description: as §2, §3, §4

[7] = 3 days, 10% serum, range of Ab concentrations tested

Substance	potency / cytotoxic activity on cell viability (MTT assay), in words [1]	apoptosis: percentage of cells in sub-G1/G0 phase, morphology (DAPI) [2]	expression levels of phosphorylated p65NF-κB and downstream Bcl-xL [4]	further results
Lipo-RTX 48: Rituximab bound to liposomes at antibody-to-lipid ratio of 48 μg antibody/μmol lipid	superior potency to free Rituximab			
Lipo-RTX 59: Rituximab bound to liposomes at antibody-to-lipid ratio of 59 μg antibody/μmol lipid	superior potency to free Rituximab			
cross-linked rituximab: Free rituximab cross-linked by an anti-human IgG F(ab)′ (goat F(ab′)2 anti-human IgG, 50 μg/mL), included as a control		increases	reduced	activity (fa) compared to liposomal rituximab, in words ([3]; Ab concentrations above 10 μg/mL, P<0.05): more effective than liposomal rituximab; expression level of p-Akt [4]: capable of reducing
free rituximab: a therapeutic antibody targeting CD20; anti CD20 monoclonal antibody	minimal or no cytotoxic activity	not different from untreated cells	not different from untreated cells	
liposomal rituximab: rituximab conjugated to DSPC/CHOL/DSPE-PEG2000/DSPE-PEG2000-MAL liposomes, Ab-to-lipid ratio 50-70 μg/μmol		increases	reduced	increase in caspase 3/7 activity [5]: not; activity (fa) compared to free rituximab, in words [3, 7]: significantly more effective than the free, bivalent form; activity (fa) compared to free rituximab, in words [6, 7]: significantly more effective than the free, bivalent form; activity (fa) compared to cross-linked rituximab, in words ([6]; P>0.05): not significantly different from that of cross-linked rituximab
